The record followed here is ChEMBL document CHEMBL5725343, “Amino-substituted isothiazoles” (2017).

A value given as a limit tells only on which side of the number the result lay.

Experiment [1] addresses Mitotic checkpoint serine/threonine-protein kinase BUB1 (Homo sapiens, UniProt O43683). The experiment in a line: Bub1 Kinase Assay: Recombinant fusion proteins of GST and human CDK2 and of GST and human CycE, expressed in insect cells (Sf9) and purified by Glutathion-Sepharose affinity chromatography, were purchased from ProQinase GmbH (Freiburg, Germany). As substrate for the kinase reaction biotinylated peptide biotin-Ttds-YISPLKSPYKISEG (C-terminus in amid form) was used which can be purchased e.g. form the company JERINI peptide technologies (Berlin, Germany). For the assay 50 nl of a 100 fold concentrated solution of the test compound in DMSO was pipetted into a black low volume 384 well microtiter plate (Greiner Bio-One, Frickenhausen, Germany), 2 ul of a solution of CDK2/CycE in aqueous assay buffer [50 mM Tris/HCl pH 8.0, 10 mM MgCl2, 1.0 mM dithiothreitol, 0.1 mM sodium ortho-vanadate, 0.01% (v/v) Nonidet-P40 (Sigma)] were added and the mixture was incubated for 15 min at 22° C. to allow pre-binding of the test compounds to the enzyme before the start of the kinase reaction. Then the kinase reaction was started by the addition of 3 ul of a solution of adenosine-tri-phosphate (ATP, 16.7 uM=>final conc. in the 5 ul assay volume is 10 uM) and substrate (1.25 uM=>final conc. in the 5 ul assay volume is 0.75 uM) in assay buffer and the resulting mixture was incubated for a reaction time of 25 min at 22° C. […].

Experiment [2] deals with T1, Dual specificity protein kinase TTK (Homo sapiens, UniProt P33981).
T1 sequence (P33981 whole entry): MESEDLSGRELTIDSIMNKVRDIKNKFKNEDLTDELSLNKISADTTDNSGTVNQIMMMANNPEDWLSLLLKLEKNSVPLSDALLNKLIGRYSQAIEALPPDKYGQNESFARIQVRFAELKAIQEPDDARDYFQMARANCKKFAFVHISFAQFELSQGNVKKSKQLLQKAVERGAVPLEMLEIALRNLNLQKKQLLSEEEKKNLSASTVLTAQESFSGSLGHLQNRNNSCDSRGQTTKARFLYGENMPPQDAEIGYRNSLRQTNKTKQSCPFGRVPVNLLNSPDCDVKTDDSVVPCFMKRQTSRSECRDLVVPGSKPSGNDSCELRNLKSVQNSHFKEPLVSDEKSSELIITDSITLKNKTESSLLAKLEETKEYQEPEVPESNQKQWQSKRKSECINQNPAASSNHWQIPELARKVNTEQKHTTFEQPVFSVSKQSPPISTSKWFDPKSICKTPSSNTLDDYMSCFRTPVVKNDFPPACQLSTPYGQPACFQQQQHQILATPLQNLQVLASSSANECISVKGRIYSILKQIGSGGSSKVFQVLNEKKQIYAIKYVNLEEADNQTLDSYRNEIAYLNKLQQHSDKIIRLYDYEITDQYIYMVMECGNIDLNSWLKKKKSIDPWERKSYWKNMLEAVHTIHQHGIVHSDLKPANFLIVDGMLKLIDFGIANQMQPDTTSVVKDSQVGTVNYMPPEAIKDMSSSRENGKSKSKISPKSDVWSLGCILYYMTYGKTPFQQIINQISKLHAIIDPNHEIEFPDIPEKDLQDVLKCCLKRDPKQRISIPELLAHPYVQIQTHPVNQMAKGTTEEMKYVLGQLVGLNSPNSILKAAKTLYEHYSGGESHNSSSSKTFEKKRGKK
The experiment in a line: Mps-1 Kinase Assay: N-terminally GST-tagged human full length recombinant Mps-1 kinase (purchased from Invitrogen, Karslruhe, Germany, cat. no PV4071) was used. As substrate for the kinase reaction a biotinylated peptide of the amino-acid sequence biotin-Ahx-PWDPDDADITEILG (C-terminus in amide form, purchased from Biosyntan GmbH, Berlin) was used. For the assay 50 nl of a 100-fold concentrated solution of the test compound in DMSO was pipetted into a black low volume 384 well microtiter plate (Greiner Bio-One, Frickenhausen, Germany), 2 ul of a solution of Mps-1 in assay buffer [0.1 mM sodium-ortho-vanadate, 10 mM MgCl2, 2 mM DTT, 25 mM Hepes pH 7.7, 0.05% BSA (w/v), 0.001% Pluronic F-127] were added and the mixture was incubated for 15 min at 22° C. to allow pre-binding of the test compounds to Mps-1 before the start of the kinase reaction. Then the kinase reaction was started by the addition of 3 ul of a solution of 16.7 uM adenosine-tri-phosphate (ATP, 16.7 uM=>final conc. in the 5 ul assay volume is 10 uM) and peptide substrate (1.67 uM=>final conc. in the 5 ul assay volume is 1 uM) in assay buffer and the resulting mixture was incubated for a reaction time of 60 min at 22° C. […].

The nature of experiment [3]: […]: N-terminally His6-tagged recombinant catalytic domain of human Bub1 (amino acids 704-1085), expressed in insect cells (Hi5) and purified by Ni-NTA affinity chromatography and subsequent size exclusion chromatography, was used as enzyme. As substrate for the kinase reaction the biotinylated peptide biotin-Ahx-VLLPKKSFAEPG (C-terminus in amid form) was used which can be purchased e.g. form the company Biosyntan (Berlin, Germany). For the assay 50 nl of a 100 fold concentrated solution of the test compound in DMSO was pipetted into a black low volume 384 well microtiter plate (Greiner Bio-One, Frickenhausen, Germany), 2 ul of a solution of Bub1 in aqueous assay buffer [50 mM Tris/HCl pH 7.5, 10 mM magnesium chloride (MgCl2), 200 mM potassium chloride (KCl), 1.0 mM dithiothreitol (DTT), 0.1 mM sodium ortho-vanadate, 1% (v/v) glycerol, 0.01% (w/v) bovine serum albumine (BSA), 0.005% (v/v) Trition X-100 (Sigma), 1x Complete EDTA-free protease inhibitor mixture (Roche)] were added and the mixture was incubated for 15 min at 22° C. to allow pre-binding of the test compounds to the enzyme before the start of the kinase reaction. […]. For orientation: Size exclusion chromatography separates by hydrodynamic size, large species first.

Mitotic checkpoint serine/threonine-protein kinase BUB1, sequence (O43683 whole entry, the tested form may be a part): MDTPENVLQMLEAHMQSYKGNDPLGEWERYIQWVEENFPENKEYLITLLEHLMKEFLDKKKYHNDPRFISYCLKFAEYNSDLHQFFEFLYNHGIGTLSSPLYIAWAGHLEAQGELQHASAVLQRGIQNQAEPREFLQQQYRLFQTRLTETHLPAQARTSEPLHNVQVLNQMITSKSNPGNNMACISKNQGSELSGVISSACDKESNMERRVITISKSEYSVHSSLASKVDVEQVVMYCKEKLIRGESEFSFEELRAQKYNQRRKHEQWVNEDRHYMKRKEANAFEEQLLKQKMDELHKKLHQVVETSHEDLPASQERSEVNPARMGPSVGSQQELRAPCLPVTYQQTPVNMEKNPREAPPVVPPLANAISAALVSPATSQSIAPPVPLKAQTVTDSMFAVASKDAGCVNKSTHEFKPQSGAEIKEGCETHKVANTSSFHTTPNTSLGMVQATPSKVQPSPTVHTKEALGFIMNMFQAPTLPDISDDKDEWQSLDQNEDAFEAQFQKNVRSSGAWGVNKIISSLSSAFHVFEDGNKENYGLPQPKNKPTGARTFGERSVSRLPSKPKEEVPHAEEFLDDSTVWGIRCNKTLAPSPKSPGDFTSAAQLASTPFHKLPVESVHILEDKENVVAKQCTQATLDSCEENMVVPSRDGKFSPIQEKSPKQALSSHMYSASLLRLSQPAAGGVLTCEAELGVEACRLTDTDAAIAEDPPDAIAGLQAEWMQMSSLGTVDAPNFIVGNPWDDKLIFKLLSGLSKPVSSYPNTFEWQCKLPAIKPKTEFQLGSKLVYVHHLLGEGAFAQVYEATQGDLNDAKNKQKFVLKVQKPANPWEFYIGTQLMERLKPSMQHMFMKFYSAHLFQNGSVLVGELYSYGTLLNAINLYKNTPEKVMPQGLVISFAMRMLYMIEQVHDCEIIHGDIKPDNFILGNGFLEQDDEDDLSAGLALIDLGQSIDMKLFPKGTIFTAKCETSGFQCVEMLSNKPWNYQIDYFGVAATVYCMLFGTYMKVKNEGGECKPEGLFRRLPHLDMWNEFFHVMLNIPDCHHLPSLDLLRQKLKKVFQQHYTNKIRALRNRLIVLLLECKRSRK

As a reminder, the IC50 is the concentration needed to halve the response being measured. For the molecule `Cc1nsc(Nc2cncc(-n3cccn3)n2)c1C(=O)Nc1ccc(F)c(F)c1`, the results for the IC50 in experiment [1] and in experiment [2] were 15 µM and above 20 µM, respectively.

Take `Cc1nsc(Nc2cc(C#N)ccn2)c1C(=O)Nc1ccc(Oc2ccc(F)cc2F)nc1`: the IC50 in experiment [1] and in experiment [2] was above 20 µM throughout.

Take `COc1ccc(Oc2ccc(CC(=O)c3c(C)nsc3Nc3cc(C#N)ccn3)cn2)cc1`: the IC50 in experiment [3] is above 20 µM.
